Inconclusive results and toxic doses are left out. The calls were made as follows: active = survival T/C of 150% or more; inactive = T/C below 125% in these data.
Tested on: CD2F1 mice, L1210 leukemia ip, survival T/C
Assay: NCI In Vivo Anticancer Drug Screen. Data for tumor model L1210 Leukemia (intraperitoneal) in CD2F1 (CDF1) mice
Details: endpoint: mean survival time, higher = longer survival
In short: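 Transplantable tumor in mice; compound-treated vs vehicle-treated groups. Read-out = treated/control ratio of the measured endpoint.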

Measured: T/C

COc1ccc2nc3cc(Cl)ccc3c(Nc3cccc(NS(C)(=O)=O)c3)c2n1
inactive: dose: 12.5 mg/kg/injection, schedule: Q01DX009 (ip), vehicle: other 100 % of control | dose: 25.0 mg/kg/injection, schedule: Q01DX009 (ip), vehicle: other 93 % of control | dose: 50.0 mg/kg/injection, schedule: Q01DX009 (ip), vehicle: other 89 % of control | dose: 100.0 mg/kg/injection, schedule: Q01DX009 (ip), vehicle: other 93 % of control | dose: 200.0 mg/kg/injection, schedule: Q01DX009 (ip), vehicle: other 93 % of control

Cc1cc(=O)[nH][nH]c1=O
inactive: dose: 100.0 mg/kg/injection, schedule: Q01DX009 (ip), vehicle: saline with Tween-80 104 % of control | dose: 200.0 mg/kg/injection, schedule: Q01DX009 (ip), vehicle: saline with Tween-80 97 % of control | dose: 400.0 mg/kg/injection, schedule: Q01DX009 (ip), vehicle: saline with Tween-80 101 % of control

Cc1ccc(SSc2ccc(C)cc2)cc1
inactive: dose: 100.0 mg/kg/injection, schedule: Q01DX001 (ip), vehicle: saline 100 % of control | dose: 200.0 mg/kg/injection, schedule: Q01DX001 (ip), vehicle: saline 100 % of control | dose: 400.0 mg/kg/injection, schedule: Q01DX001 (ip), vehicle: saline 91 % of control

CCCC[P+](CCCC)(CCCC)Cc1ccc([N+](=O)[O-])cc1
inactive: dose: 12.5 mg/kg/injection, schedule: Q01DX009 (ip), vehicle: Klucel (hydroxypropylcellulose) (HPC) 104 % of control | dose: 25.0 mg/kg/injection, schedule: Q01DX009 (ip), vehicle: Klucel (hydroxypropylcellulose) (HPC) 96 % of control | dose: 25.0 mg/kg/injection, schedule: Q04DX003 (ip), vehicle: Klucel (hydroxypropylcellulose) (HPC) 94 % of control | dose: 50.0 mg/kg/injection, schedule: Q01DX001 (ip), vehicle: Klucel (hydroxypropylcellulose) (HPC) 96 % of control | dose: 50.0 mg/kg/injection, schedule: Q01DX009 (ip), vehicle: Klucel (hydroxypropylcellulose) (HPC) 115 % of control | dose: 50.0 mg/kg/injection, schedule: Q04DX002 (ip), vehicle: Klucel (hydroxypropylcellulose) (HPC) 96 % of control | dose: 50.0 mg/kg/injection, schedule: Q04DX003 (ip), vehicle: Klucel (hydroxypropylcellulose) (HPC) 94 % of control

From PubChem BioAssay AID256 (DTP/NCI, 2004)
